The record followed here is PubChem BioAssay AID686936 (Broad Institute, 2013).

The experiment relates to LuxO (D47E) transcriptional regulator, Vibrio cholerae O395. Put plainly: PubChem AID 686936. As to conditions: stronger effect = lower value.
The mark [1] stands for this setting: PK/LDH coupled NADH A340, at 100 µM.
Where [2] appears, read: PK/LDH coupled NADH A340, rate, at 1 µM.
Setting [3] is: PK/LDH coupled NADH A340, rate, at 25 µM.

Molecules are shown by their SMILES.

On to `O=C(Nc1nnc(-c2ccc3c(c2)OCCO3)o1)C1CCCCC1`, for which the ATPase rate (delta OD340/min) under setting [1] was 0.0424, the ATPase rate (delta OD340/min) under setting [2] turned out to be 0.0644 and the ATPase rate (delta OD340/min) under setting [3] worked out at 0.0279.
Take `Cc1ccc2cc3c(NC(=O)c4ccco4)nn(C)c3nc2c1`: the ATPase rate (delta OD340/min) under setting [1] was 0.00981, the ATPase rate (delta OD340/min) under setting [2] is 0.0527 and the ATPase rate (delta OD340/min) under setting [3] was found to be 0.0182.
